Laboratory results published in patent US8691865B2 (AbbVie Inc., priority 2008, dated 2014).
Where two headings read alike, the source gives them in different places.

Biological target: human Cav2.2 (Homo sapiens, UniProt Q00975)
Test: Assessment of calcium channel activity using FLIPR (Ca2+ influx in IMR32 cells)
Assay type: cell-based
Summary of the method: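 Human neuroblastoma IMR32 cells were seeded at 1−1.2×10^5 cells/well and cultured 48 h at 37 °C before FLIPR calcium influx measurement. Percent inhibition at each concentration was calculated against the no-inhibitor signal, and IC50 came from sigmoidal dose-response fits.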

[1] = read-out: IC50 (μM) or percent inhibition (* indicates 3 minute incubation, otherwise 60 minute), IC50, 60 minute pre-incubation with compound, IMR32 cells, 80 mM KCl depolarization

Sequence of human Cav2.2 (Q00975 whole entry): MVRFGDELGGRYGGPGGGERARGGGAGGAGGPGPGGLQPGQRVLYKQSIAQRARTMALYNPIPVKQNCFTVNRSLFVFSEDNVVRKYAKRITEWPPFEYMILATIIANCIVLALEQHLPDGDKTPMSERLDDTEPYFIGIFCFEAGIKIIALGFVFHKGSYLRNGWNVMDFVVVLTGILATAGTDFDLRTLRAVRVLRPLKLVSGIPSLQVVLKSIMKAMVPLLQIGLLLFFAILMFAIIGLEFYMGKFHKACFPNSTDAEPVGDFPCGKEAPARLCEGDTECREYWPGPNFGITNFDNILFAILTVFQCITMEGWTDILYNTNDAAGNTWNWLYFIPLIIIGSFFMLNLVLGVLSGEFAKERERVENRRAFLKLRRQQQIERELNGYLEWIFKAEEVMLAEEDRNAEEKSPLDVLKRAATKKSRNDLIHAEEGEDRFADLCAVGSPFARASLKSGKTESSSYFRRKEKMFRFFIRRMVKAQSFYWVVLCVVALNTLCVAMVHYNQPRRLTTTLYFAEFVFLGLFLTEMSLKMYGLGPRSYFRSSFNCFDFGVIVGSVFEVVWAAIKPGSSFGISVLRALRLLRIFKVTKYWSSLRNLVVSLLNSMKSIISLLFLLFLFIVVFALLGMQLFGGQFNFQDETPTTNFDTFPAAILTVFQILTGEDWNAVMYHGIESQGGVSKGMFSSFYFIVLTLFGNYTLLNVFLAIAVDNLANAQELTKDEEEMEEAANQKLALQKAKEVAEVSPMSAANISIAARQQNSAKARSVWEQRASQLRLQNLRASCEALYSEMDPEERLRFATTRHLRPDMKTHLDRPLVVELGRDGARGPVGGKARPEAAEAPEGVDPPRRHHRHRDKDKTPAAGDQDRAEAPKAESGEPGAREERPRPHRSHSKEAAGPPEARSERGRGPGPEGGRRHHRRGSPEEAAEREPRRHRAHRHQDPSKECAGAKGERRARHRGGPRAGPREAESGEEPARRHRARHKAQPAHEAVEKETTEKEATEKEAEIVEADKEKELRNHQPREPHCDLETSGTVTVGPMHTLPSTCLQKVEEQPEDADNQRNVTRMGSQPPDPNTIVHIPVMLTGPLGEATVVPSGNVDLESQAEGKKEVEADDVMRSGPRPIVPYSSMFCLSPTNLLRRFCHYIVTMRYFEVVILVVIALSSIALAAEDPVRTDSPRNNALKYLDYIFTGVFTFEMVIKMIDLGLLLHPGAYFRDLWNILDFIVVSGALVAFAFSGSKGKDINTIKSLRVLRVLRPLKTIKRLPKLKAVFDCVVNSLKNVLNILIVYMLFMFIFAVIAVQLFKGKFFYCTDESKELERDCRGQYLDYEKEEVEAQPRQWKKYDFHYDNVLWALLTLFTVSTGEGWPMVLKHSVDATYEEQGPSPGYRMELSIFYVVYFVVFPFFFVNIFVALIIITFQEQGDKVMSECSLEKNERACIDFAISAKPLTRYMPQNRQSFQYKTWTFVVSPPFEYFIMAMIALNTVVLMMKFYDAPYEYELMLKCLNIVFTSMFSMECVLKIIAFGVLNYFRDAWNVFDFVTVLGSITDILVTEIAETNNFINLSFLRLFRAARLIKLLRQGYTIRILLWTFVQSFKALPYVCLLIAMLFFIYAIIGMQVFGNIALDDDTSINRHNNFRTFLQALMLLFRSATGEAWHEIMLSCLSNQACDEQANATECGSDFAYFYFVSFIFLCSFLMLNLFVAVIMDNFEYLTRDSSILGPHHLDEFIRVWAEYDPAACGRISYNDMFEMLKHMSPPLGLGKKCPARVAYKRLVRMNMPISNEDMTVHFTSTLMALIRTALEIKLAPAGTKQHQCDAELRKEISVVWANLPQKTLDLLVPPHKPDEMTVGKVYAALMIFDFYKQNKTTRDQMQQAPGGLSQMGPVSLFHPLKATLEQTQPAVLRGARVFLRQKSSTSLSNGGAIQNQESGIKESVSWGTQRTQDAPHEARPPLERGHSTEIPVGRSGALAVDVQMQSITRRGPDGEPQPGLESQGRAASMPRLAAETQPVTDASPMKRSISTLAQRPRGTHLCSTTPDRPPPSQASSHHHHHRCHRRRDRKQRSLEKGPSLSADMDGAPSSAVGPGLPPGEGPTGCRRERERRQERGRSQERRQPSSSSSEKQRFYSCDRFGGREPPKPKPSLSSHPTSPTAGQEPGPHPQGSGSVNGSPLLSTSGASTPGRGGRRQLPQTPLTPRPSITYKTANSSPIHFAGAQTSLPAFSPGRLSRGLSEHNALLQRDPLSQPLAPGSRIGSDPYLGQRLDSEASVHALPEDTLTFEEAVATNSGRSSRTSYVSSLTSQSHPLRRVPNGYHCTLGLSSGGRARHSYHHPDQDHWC
Sequence of human Cav2.2 (P54289 25-956 partner limits assumed): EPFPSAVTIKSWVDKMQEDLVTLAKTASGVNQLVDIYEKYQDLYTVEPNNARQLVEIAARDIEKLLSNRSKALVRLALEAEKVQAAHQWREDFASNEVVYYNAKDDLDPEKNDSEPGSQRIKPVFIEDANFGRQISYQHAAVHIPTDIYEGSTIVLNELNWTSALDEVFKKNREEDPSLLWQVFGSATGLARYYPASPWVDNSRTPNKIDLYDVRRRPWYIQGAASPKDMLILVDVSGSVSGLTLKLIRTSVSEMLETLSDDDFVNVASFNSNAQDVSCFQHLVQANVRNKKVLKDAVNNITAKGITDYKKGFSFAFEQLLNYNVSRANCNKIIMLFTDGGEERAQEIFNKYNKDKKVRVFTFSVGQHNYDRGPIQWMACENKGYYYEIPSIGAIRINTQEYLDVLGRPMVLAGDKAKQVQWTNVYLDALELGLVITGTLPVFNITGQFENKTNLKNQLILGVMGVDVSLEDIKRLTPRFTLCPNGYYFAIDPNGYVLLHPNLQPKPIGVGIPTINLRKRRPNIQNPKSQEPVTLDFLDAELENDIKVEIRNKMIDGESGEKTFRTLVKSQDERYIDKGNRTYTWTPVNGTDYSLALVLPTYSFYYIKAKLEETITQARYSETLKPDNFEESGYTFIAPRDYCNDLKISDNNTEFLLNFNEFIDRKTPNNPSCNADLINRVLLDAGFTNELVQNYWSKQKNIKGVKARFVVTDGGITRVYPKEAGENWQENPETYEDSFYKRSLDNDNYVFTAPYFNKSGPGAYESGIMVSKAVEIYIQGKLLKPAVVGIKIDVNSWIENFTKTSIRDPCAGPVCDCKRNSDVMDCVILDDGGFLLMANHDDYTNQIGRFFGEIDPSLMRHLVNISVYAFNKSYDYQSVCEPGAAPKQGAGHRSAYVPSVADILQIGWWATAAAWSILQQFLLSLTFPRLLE
Sequence of human Cav2.2 (P54289 957-1103 partner limits assumed): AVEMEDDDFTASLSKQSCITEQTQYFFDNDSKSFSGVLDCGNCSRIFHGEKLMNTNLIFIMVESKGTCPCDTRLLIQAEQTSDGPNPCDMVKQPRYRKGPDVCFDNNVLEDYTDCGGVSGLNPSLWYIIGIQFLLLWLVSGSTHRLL
Sequence of human Cav2.2 (P54284 whole entry partner): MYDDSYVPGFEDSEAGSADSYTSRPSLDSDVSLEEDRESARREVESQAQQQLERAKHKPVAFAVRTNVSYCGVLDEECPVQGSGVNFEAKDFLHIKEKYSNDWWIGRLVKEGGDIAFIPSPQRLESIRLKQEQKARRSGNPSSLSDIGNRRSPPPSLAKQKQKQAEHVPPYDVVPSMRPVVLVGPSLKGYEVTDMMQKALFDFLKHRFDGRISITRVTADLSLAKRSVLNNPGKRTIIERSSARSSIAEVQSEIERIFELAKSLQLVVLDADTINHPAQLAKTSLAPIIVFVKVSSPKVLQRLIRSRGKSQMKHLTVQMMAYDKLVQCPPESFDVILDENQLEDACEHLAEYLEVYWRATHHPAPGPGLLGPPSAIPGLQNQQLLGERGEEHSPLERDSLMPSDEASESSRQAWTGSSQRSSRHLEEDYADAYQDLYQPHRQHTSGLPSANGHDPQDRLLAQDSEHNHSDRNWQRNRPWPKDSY

| Compound | IC50 [µM] | IC50 [1] [µM] |
| --- | --- | --- |
| CC(C)C[C@@H](C(=O)N[C@H]1CC[C@@H]2CN(Cc3ccc(C(F)(F)F)cc3)C[C@@H]21)N(C)C(=O)OC(C)(C)C [Example 308, tert-butyl methyl((S)-4-methyl-1-oxo-1-((3aR,4S,6aS)-2-(4-(trifluoromethyl)benzyl)octahydrocyclopenta[c]pyrrol-4-ylamino)pentan-2-yl)carbamate] | 1.93 | – |
| FC(F)(F)c1cccc(N2C[C@H]3CC[C@H](NCc4c[nH]nc4-c4ccccc4)[C@H]3C2)n1 [Example 682, (3aR,4S,6aS)-N-[(3-phenyl-1H-pyrazol-4-yl)methyl]-2-[6-(trifluoromethyl)pyridin-2-yl]octahydrocyclopenta[c]pyrrol-4-amine] | 0.87 | – |
| O=C(N[C@@H]1CC[C@H]2CN(Cc3cccc(C(F)(F)F)c3)C[C@H]21)C(O)(C1CCCCC1)C1CCCCC1 [Example 154, 2,2-dicyclohexyl-2-hydroxy-N-{(3aS,4R,6aR)-2-[3-(trifluoromethyl)benzyl]octahydrocyclopenta[c]pyrrol-4-yl}acetamide] | – | 1.33 |
| CC(C)C[C@H](N)C(=O)N[C@H]1CC[C@H]2CN(Cc3cccc(C(F)(F)F)c3)C[C@H]21 (stereo in doubt) [Example 158, N^1-{(3aS*,4S*,6aR*)-2-[3-(trifluoromethyl)benzyl]octahydrocyclopenta[c]pyrrol-4-yl}-L-leucinamide] | – | 3.51 |
| O=C(N[C@H]1CC[C@@H]2CN(c3ccc(C(F)(F)F)cn3)C[C@@H]21)[C@@H]1C[C@@H](F)CN1 [Example 780, (4R)-4-fluoro-N-{(3aR,4S,6aS)-2-[5-(trifluoromethyl)pyridin-2-yl]octahydrocyclopenta[c]pyrrol-4-yl}-L-prolinamide] | 14 | – |
| CN[C@@H](CC(C)C)C(=O)N[C@H]1CC[C@@H]2CN(c3cccc(F)c3)C[C@@H]21 [Example 629, N-[(3aR,4S,6aS)-2-(3-fluorophenyl)octahydrocyclopenta[c]pyrrol-4-yl]-N^2-methyl-L-leucinamide] | 4.22 | – |
| O=C(N[C@H]1CC[C@H]2CN(Cc3cccc(C(F)(F)F)c3)C[C@H]21)C(C1CCCCC1)C1CCCCC1 [Example 54, 2,2-dicyclohexyl-N-{(3aS,4S,6aR)-2-[3-(trifluoromethyl)benzyl]octahydrocyclopenta[c]pyrrol-4-yl}acetamide] | 0.46 | – |
| CC(C)(C)C[C@H](NCC1CC1)C(=O)N[C@H]1CC[C@@H]2CN(c3cccc(C(F)(F)F)n3)C[C@@H]21 [Example 479, N^2-(cyclopropylmethyl)-4-methyl-N^1-{(3aR,4S,6aS)-2-[6-(trifluoromethyl)pyridin-2-yl]octahydrocyclopenta[c]pyrrol-4-yl}-L-leucinamide] | – | 0.26 |
| CCC[C@H](NC)C(=O)N[C@H]1CC[C@@H]2CN(c3ccc(C(F)(F)F)cc3)C[C@@H]21 [Example 759, N^2-methyl-N-{(3aR,4S,6aS)-2-[4-(trifluoromethyl)phenyl]octahydrocyclopenta[c]pyrrol-4-yl}-L-norvalinamide] | 13 | – |
| CN[C@H](C(=O)N[C@H]1CC[C@@H]2CN(c3ccc(OC(F)(F)F)cc3)C[C@@H]21)C(C)C [Example 756, N^2-methyl-N-{(3aR,4S,6aS)-2-[4-(trifluoromethoxy)phenyl]octahydrocyclopenta[c]pyrrol-4-yl}-L-valinamide] | > 9.5 | – |
| CC(C)(C)C(C(=O)N[C@@H]1CC[C@H]2CN(Cc3ccccc3)C[C@H]21)c1ccccc1 (stereo partly drawn) [Example 30, N-[(3aS,4R,6aR)-2-benzyloctahydrocyclopenta[c]pyrrol-4-yl]-3,3-dimethyl-2-phenylbutanamide] | – | 1.81 |
| CC(C)CC(C(=O)NC1CCC2CN(Cc3ccc(C(F)(F)F)c(F)c3)CC21)N(C)C(=O)OC(C)(C)C [Example 311, tert-butyl(S)-1-((3aS,4R,6aR)-2-(3-fluoro-4-(trifluoromethyl)benzyl)octahydrocyclopenta[c]pyrrol-4-ylamino)-4-methyl-1-oxopentan-2-ylmethyl)carbamate] | 2.05 | – |
| CC(C)C[C@@H](C(=O)N[C@@H]1CC[C@H]2CN(Cc3cccc(C(F)(F)F)c3)C[C@H]21)N(C)C(=O)C(C)(C)C [Example 176, N^2-(2,2-dimethylpropanoyl)-N^2-methyl-N^1-{(3aS,4R,6aR)-2-[3-(trifluoromethyl)benzyl]octahydrocyclopenta[c]pyrrol-4-yl}-L-leucinamide] | – | 0.86 |
| CC(C)C(C(=O)N[C@H]1CC[C@H]2CN(Cc3cccc(C(F)(F)F)c3)C[C@H]21)c1ccccc1 (relative stereo) [Example 122, 3-methyl-2-phenyl-N-{(3aS*,4S*,6aR*)-2-[3-(trifluoromethyl)benzyl]octahydrocyclopenta[c]pyrrol-4-yl}butanamide] | 0.36 | – |
| Cc1cccc(N2C[C@H]3CC[C@H](NC(=O)[C@@H]4C[C@@H](F)CN4)[C@H]3C2)c1 [Example 642, (4R)-4-fluoro-N-[(3aR,4S,6aS)-2-(3-methylphenyl)octahydrocyclopenta[c]pyrrol-4-yl]-L-prolinamide] | 15.6 | – |
| CC(C)C(C(=O)N(C)[C@@H]1CC[C@H]2CN(Cc3ccccc3)C[C@H]21)c1ccccc1 (relative stereo) [Example 215, N-[(3aS*,4R*,6aR*)-2-benzyloctahydrocyclopenta[c]pyrrol-4-yl]-N,3-dimethyl-2-phenylbutanamide] | – | 1.99 |

| Compound | IC50 [µM] | IC50 [1] [µM] |
| --- | --- | --- |
| CC(C)C(C(=O)N[C@H]1CC[C@@H]2CN(Cc3ccccc3)C[C@@H]21)C(C)C [Example 229, N-[(3aR,4S,6aS)-2-benzyloctahydrocyclopenta[c]pyrrol-4-yl]-2-isopropyl-3-methylbutanamide] | – | 13.4 |
| N#Cc1ccc(N2C[C@H]3CC[C@H](NC(=O)[C@@H]4C[C@@H](F)CN4)[C@H]3C2)cc1 [Example 633, (4R)-N-[(3aR,4S,6aS)-2-(4-cyanophenyl)octahydrocyclopenta[c]pyrrol-4-yl]-4-fluoro-L-prolinamide] | 26.2 | – |
| COc1ccc2[nH]c(CN[C@H]3CC[C@@H]4CN(c5cccc(C(F)(F)F)n5)C[C@@H]43)c(C)c2c1 [Example 668, (3aR,4S,6aS)-N-[(5-methoxy-3-methyl-1H-indol-2-yl)methyl]-2-[6-(trifluoromethyl)pyridin-2-yl]octahydrocyclopenta[c]pyrrol-4-amine] | 1.55 | – |
| CN[C@@H](CC(C)C)C(=O)N[C@H]1CC[C@@H]2CN(c3ccccc3Cl)C[C@@H]21 [Example 634, N-[(3aR,4S,6aS)-2-(2-chlorophenyl)octahydrocyclopenta[c]pyrrol-4-yl]-N^2-methyl-L-leucinamide] | 2.39 | – |
| O=C(N[C@H]1CC[C@@H]2CN(c3cccc(C(F)(F)F)n3)C[C@@H]21)c1ccccc1O [Example 562, 2-hydroxy-N-{(3aR,4S,6aS)-2-[6-(trifluoromethyl)pyridin-2-yl]octahydrocyclopenta[c]pyrrol-4-yl}benzamide] | 1.69 | – |
| O=C(N[C@@H]1CC[C@@H]2CN(Cc3ccccc3)C[C@@H]21)C(c1ccccc1)C1CCCCC1 (relative stereo) [Example 3, N-[(3aR*,4R*,6aS*)-2-benzyloctahydrocyclopenta[c]pyrrol-4-yl]-2-cyclohexyl-2-phenylacetamide] | 1.06 | – |
| CC(C)(C)C[C@@H](C(=O)N[C@H]1CC[C@@H]2CN(S(=O)(=O)c3ccc(C(F)(F)F)cc3)C[C@@H]21)N(C1CC1)C1CC1 [Example 500, N^2,N^2-dicyclopropyl-4-methyl-N^1-((3aR,4S,6aS)-2-{[4-(trifluoromethyl)phenyl]sulfonyl}octahydrocyclopenta[c]pyrrol-4-yl)-L-leucinamide] | 1.69 | – |
| Cn1nccc1CN[C@H]1CC[C@@H]2CN(c3cccc(C(F)(F)F)n3)C[C@@H]21 [Example 725, (3aR,4S,6aS)-N-[(1-methyl-1H-pyrazol-5-yl)methyl]-2-[6-(trifluoromethyl)pyridin-2-yl]octahydrocyclopenta[c]pyrrol-4-amine] | 0.94 | – |
| O=C(N[C@H]1CC[C@@H]2CN(c3ccccc3OC(F)(F)F)C[C@@H]21)[C@@H]1C[C@@H](F)CN1 [Example 656, (4R)-4-fluoro-N-{(3aR,4S,6aS)-2-[2-(trifluoromethoxy)phenyl]octahydrocyclopenta[c]pyrrol-4-yl}-L-prolinamide] | 2.16 | – |
| FC(F)(F)c1cccc(N2C[C@H]3CC[C@H](NCc4c[nH]c5ccc(Cl)cc45)[C@H]3C2)n1 [Example 680, (3aR,4S,6aS)-N-[(5-chloro-1H-indol-3-yl)methyl]-2-[6-(trifluoromethyl)pyridin-2-yl]octahydrocyclopenta[c]pyrrol-4-amine] | 1.66 | – |
| CC(C)(C)CCN[C@H]1CC[C@@H]2CN(c3cccc(C(F)(F)F)n3)C[C@@H]21 [Example 611, (3aR,4S,6aS)-N-(3,3-dimethylbutyl)-2-[6-(trifluoromethyl)pyridin-2-yl]octahydrocyclopenta[c]pyrrol-4-amine] | 0.5 | – |
| O=S(=O)(c1ccc(C(F)(F)F)cc1)N1C[C@H]2CC[C@H](NCc3cc4cc(F)ccc4[nH]3)[C@H]2C1 [Example 654, (3aR,4S,6aS)-N-[(5-fluoro-1H-indol-2-yl)methyl]-2-{[4-(trifluoromethyl)phenyl]sulfonyl}octahydrocyclopenta[c]pyrrol-4-amine] | 0.82 | – |
| O=S(=O)(N[C@@H]1CC[C@H]2CN(CCC(c3ccc(F)cc3)c3ccc(F)cc3)C[C@H]21)c1cccc(C(F)(F)F)c1 [Example 193, N-{(3aS,4R,6aR)-2-[3,3-bis(4-fluorophenyl)propyl]octahydrocyclopenta[c]pyrrol-4-yl}-3-(trifluoromethyl)benzenesulfonamide] | 0.57 | – |
| CCC[C@H](N)C(=O)N[C@@H]1CC[C@H]2CN(S(=O)(=O)c3ccc(C(F)(F)F)cc3)C[C@H]21 [Example 423, N^1-((3aS,4R,6aR)-2-{[4-(trifluoromethyl)phenyl]sulfonyl}octahydrocyclopenta[c]pyrrol-4-yl)-L-norvalinamide] | 6.46 | – |
| CN[C@H](C(=O)N[C@H]1CC[C@@H]2CN(c3ccc(C(F)(F)F)cn3)C[C@@H]21)C(C)C [Example 763, N^2-methyl-N-{(3aR,4S,6aS)-2-[5-(trifluoromethyl)pyridin-2-yl]octahydrocyclopenta[c]pyrrol-4-yl}-L-valinamide] | 12.3 | – |
